{"source": "patent US20250171744A1", "about": "“METHODS OF REPROGRAMMING SOMATIC CELLS AND MATERIALS RELATED THERETO” (CITY OF HOPE, priority 2019, published 2025)", "key": {"[1]": {"tested_on": "human embryonic kidney cells (293T)", "experiment": "Cell proliferation under prolonged MTX/PTX application, with or without HT (FIG. 16)", "format": "cell-based", "conditions": "for cell proliferation: prolonged, controlled application, 5% dialyzed-FBS DMEM, 500 nM MTX for 7-days", "procedure": "The cells were grown in 5% dialyzed-FBS DMEM medium. 293T cells were treated with 500 nM MTX, and HF57 cells and HDF cells were treated with 1 μM MTX for 7-days. Because inhibition of DHFR and TS by folate antagonists (MTX, PTX) results in a deficiency in the cellular pools of thymidylate and purines and thus a decrease in nucleic acid synthesis, sodium hypoxanthine (10 mM) and thymidine (1.6 mM) were added to the medium to overcome the effects of MTX and PTX. […] The cells were harvested for DNA/RNA isolation and analyzed for gene expression and DNA methylation.\nMTX and PTX are antifolates that inhibit enzymes (particularly thymidylate synthase and dihydrofolate reductase) involved in folate metabolism and purine and pyrimidine synthesis (100-103). Since these compounds are competitive inhibitors of […], these compounds were exogenously applied to the WT (HEK 293T and HF57) cells. As shown in FIGS. 16-17, application of MTX and PTX to the normal growing WT cells produced the phenotypes similar to the FPGS^ko. Several concentrations of MTX ranging from 75 nM to 500 nM were tested. The impact of MTX depended on the cell lines, exposure time, and the supplemental media. A concentration as low as 75 nM achieved similar results when a lower concentration of FBS was used, and the best results for 293T cells were obtained using MTX at a concentration ranging between 200 nM and 500 nM. Further, the pharmacological impacts of folate inhibitors on global DNA methylation were examined. 293T (control) cells were treated with 500 nM MTX and 1 μM PTX for at least 7 days before harvesting the cells and isolating the genomic DNA (gDNA). Equal amount of gDNA (100 ng) was analyzed with 5mC enzyme-linked immunosorbent assay (ELISA) (EpiGentek)."}, "293T cells [2]": {"tested_on": "293T cells", "experiment": "Global DNA methylation, 5mC ELISA (FIG. 18)", "format": "cell-based, human", "conditions": "500 nM MTX, 1 μM PTX; 7-days; vs untreated cells", "procedure": "Equal amount of DNA (100 ng) was analyzed with 5mC enzyme-linked immunosorbent assay (ELISA) (EpiGentek). […] Error bars represent the standard error for at least three independent experiments and three technical replicates.\nGlobal DNA methylation measurement Global 5-methylcytosine (5-mC) levels were quantified using the MethylFlash Methylated DNA Quantification Kits (Epigentek, Farmingdale, NY, USA). The DNA concentration was determined using the Qubit Assay (Thermo Fisher Scientific) according to the manufacturer's protocol. Briefly, 100 ng of DNA was used for incubation with both capture and detection antibodies using MethylFlash Methylated DNA Quantification Kit (Colorimetric) from Epigentek. Subsequently, measurements of the absorbance of the sample at 450 nm in a microplate spectrophotometer (BioTek Instruments, Winooski, VT, USA) were performed with the percentage of the whole genome 5-mC calculation according to manufacturer's instructions. Genomic methylation levels in study samples were expressed as percentage of 5-mC.\nMTX and PTX are antifolates that inhibit enzymes (particularly thymidylate synthase and dihydrofolate reductase) involved in folate metabolism and purine and pyrimidine synthesis (100-103). […] Equal amount of gDNA (100 ng) was analyzed with 5mC enzyme-linked immunosorbent assay (ELISA) (EpiGentek)."}, "HEK293T cells": {"tested_on": "HEK293T cells", "experiment": "Histone methylation levels (FIG. 19)", "format": "cell-based, human", "conditions": "vs control", "procedure": "(§1) Calculation of methylation level (based on OD values as shown on y-axis) was performed according to manufacturer's instructions. Representative histogram from three independent experiments are shown. All data are presented as the mean±standard error (SE) of triplicate measurements. *P<0.05, ***P<0.001."}, "HF57 cells": {"tested_on": "HF57 cells", "experiment": "Histone methylation levels (FIG. 19)", "format": "cell-based, human", "conditions": "vs control", "procedure": "as §1"}, "293T cells [3]": {"tested_on": "293T cells", "experiment": "qRT-PCR relative transcript levels of ANKRD1 and ANOS (FIG. 22, 23)", "format": "cell-based, human", "conditions": "vs control cells", "procedure": "To validate microarray results, quantitative 2-step RT-PCR was performed. One microgram of total RNA was reverse transcribed to first-strand cDNA with the Qiagen cDNA Synthesis Kit (Qiagen), and this cDNA was subsequently used as a template for quantitative PCR with gene-specific primers. The ubiquitous β-actin gene served as a control for constitutive gene expression. The quantitative RT-PCR (qRT-PCR) reactions were performed using Power Sybr Green PCR Master Mix (Thermo Fisher Scientific) on a CFX96 Touch Real-Time PCR Detection System (Bio-Rad, Hercules, CA, USA). Relative expression levels (2^−ΔCt) were calculated according to the Livak and Schmittgen method (40). Expression levels of each gene were compared with the expression level of actin."}, "[4]": {"tested_on": "MTX/PTX treated, SSEA4 positive cells", "experiment": "Neural differentiation (FIG. 30)", "format": "cell-based, human", "conditions": "neural differentiation medium, laminin coated plates, 10-15-days", "procedure": "For neural differentiation, MTX/PTX treated, SSEA4 positive cells were initially grown onto Matrigel-coated 6-well plates in mTeSR1 medium. To induce neural differentiation, the cells were dissociated and passaged onto laminin (20 μg ml−1; Sigma-Aldrich, USA) coated plates and grown in Neurobasal medium (Thermo Fisher Scientific, USA) or RPMI1640 medium (Gibco, USA) for 10-15-days at 37° C./5% CO2. The medium was supplemented with 1% serum free B-27 (Gibco, USA), 1% Glutamax (Gibco, USA), 1% NEAA (Gibco, USA), and 1% penicillin/streptomycin (Gibco, USA)."}, "[5]": {"tested_on": "MTX/PTX treated and SSEA4 positive cells", "experiment": "Cardiomyocyte marker expression in cardiomyocytes differentiation medium (FIG. 31)", "format": "cell-based, human", "procedure": "MTX/PTX treated and SSEA4 positive cells were maintained on Matrigel-coated 6-well plates in mTeSR1 medium. To induce differentiation, cells with EB-like morphology were dissociated with Accutase (Invitrogen) at 37° C. for 5 minutes and then single cell suspension was seeded onto a Matrigel-coated cell-culture dish at 100,000 cell/cm^2 in mTeSR1 supplemented with 5 μM ROCK inhibitor (Y-27632) for 24 hours. The cells then were cultured in mTeSR1 medium, which was changed daily. Next, 8 μl of 36 mM CHIR99021 were added into 24 ml RPMI/B27-insulin medium to make 12 μM CHIR99021 RPMI/B27-insulin medium and 2-ml of this were added to each well after the old mTeSR1 medium was removed. Exactly 24 hours after adding CHIR, the medium was replaced with 2 ml room temperature RPMI/B27-insulin. The plate was put back into the 37° C., 5% CO2 incubator. 72 hours post addition of CHIR99021, 1 ml medium from each well was removed and the remaining 1-ml was supplemented with 1-ml RPMI/B27-insulin with 5 μM IWP2 (WNT pathway inhibitor). After 48 hours, the medium was replaced with fresh RPMI/B27-insulin and this was incubated at 37° C., 5% CO2 incubator. After this, every 2-days, the old medium was removed from each well of the 12-well plate and 2 ml/well room temperature RPMI/B27 medium was added and incubated at 37° C., 5% CO2. Spontaneous contraction should occur by day 14 and spontaneous beating can be maintained for several weeks. […] The expression of the key cardiomyocyte markers, Nkx2, which is an early cardiac transcriptional factor, indicative of cardiac progenitor phenotype, and cTNT, which is cardiac troponin T, a muscle contractility regulatory protein, indicative of a mature cardiac phenotype, were tested."}}, "note": "“Also recorded” adds a separate entry of the source.", "data": [{"smiles": "CN(Cc1cnc2nc(N)nc(N)c2n1)c1ccc(C(=O)N[C@@H](CCC(=O)O)C(=O)O)cc1", "note": "[MTX, methotrexate]", "values": [{"measurement": "cell proliferation", "setting": "[1]", "result": "reduced cell proliferation"}, {"measurement": "concentration as low as which achieved similar results", "setting": "[1]; when a lower concentration of FBS was used", "result": 75, "unit": "nM"}, {"measurement": "global DNA methylation (5mC content)", "setting": "293T cells [2]", "result": "significantly lower levels of DNA methylation; also recorded: significant reduction in global DNA methylation"}, {"measurement": "Dimethyl H3-K9 methylation", "setting": "HEK293T cells", "result": "significantly reduced"}, {"measurement": "global histone H3-K4 methylation", "setting": "HEK293T cells", "result": "significantly reduced"}, {"measurement": "Dimethyl H3-K9 methylation", "setting": "HF57 cells", "result": "significantly reduced"}, {"measurement": "global histone H3-K4 methylation", "setting": "HF57 cells", "result": "significantly reduced"}, {"measurement": "relative transcripts level of ANOS", "setting": "293T cells [3]", "result": "significantly higher"}, {"measurement": "relative transcripts level of Ankyrin repeat domain 1 (ANKRD1)", "setting": "293T cells [3]", "result": "significantly higher"}, {"measurement": "differentiation into neural cells", "setting": "[4]", "result": "can differentiate into neural cells"}, {"measurement": "expression of Nkx2", "setting": "[5]", "result": "significantly up-regulated"}, {"measurement": "expression of cTNT", "setting": "[5]", "result": "significantly up-regulated"}]}, {"smiles": "Nc1nc2[nH]cc(CCc3ccc(C(=O)N[C@@H](CCC(=O)O)C(=O)O)cc3)c2c(=O)[nH]1", "note": "[PTX, pemetrexed]", "values": [{"measurement": "cell proliferation", "setting": "[1]", "result": "reduced cell proliferation"}, {"measurement": "global DNA methylation (5mC content)", "setting": "293T cells [2]", "result": "significantly lower levels of DNA methylation; also recorded: significant reduction in global DNA methylation"}, {"measurement": "Dimethyl H3-K9 methylation", "setting": "HEK293T cells", "result": "significantly reduced"}, {"measurement": "global histone H3-K4 methylation", "setting": "HEK293T cells", "result": "significantly reduced"}, {"measurement": "Dimethyl H3-K9 methylation", "setting": "HF57 cells", "result": "significantly reduced"}, {"measurement": "global histone H3-K4 methylation", "setting": "HF57 cells", "result": "significantly reduced"}, {"measurement": "relative transcripts level of ANOS", "setting": "293T cells [3]", "result": "significantly higher"}, {"measurement": "relative transcripts level of Ankyrin repeat domain 1 (ANKRD1)", "setting": "293T cells [3]", "result": "significantly higher"}, {"measurement": "differentiation into neural cells", "setting": "[4]", "result": "can differentiate into neural cells"}, {"measurement": "expression of Nkx2", "setting": "[5]", "result": "significantly up-regulated"}, {"measurement": "expression of cTNT", "setting": "[5]", "result": "significantly up-regulated"}]}]}
